Measured values reported in US20180071317A1, “USE OF AGENTS THAT ALTER THE PERITUMORAL ENVIRONMENT FOR THE TREATMENT OF CANCER” (SERVICIO ANDALUZ DE SALUD, priority 2011, published 2018).

Legend:
mononuclear cells = assay: Marker expression (immunohistochemistry) in mononuclear blood cells with SP alone or with NK1 antagonists; format: cell-based, human; conditions: SP 1 μM; 48 h
Excerpt: (§1) Briefly, heparinized blood from healthy donors was centrifuged so as to separate the various components thereof. Red blood cells remained at the bottom of the tube. Above them was a small white layer composed of the white blood cells and above, on top of the tube, the blood plasma. The layer of white cells was distributed in a culture plate of 24 wells by adding in each the same concentration of blood plasma from the same donor, supplemented with 1% antibiotic-antimycotic (Invitrogen). In each well, approximately 1000 cells (PHF) skin from the dermis were further added, obtained as previously described in Example 2. […] After 48 hours of incubation, cells were collected and embedded in paraffin for expression analysis by immunohistochemical techniques (as described in Example 1).
(§2) The expression of TGF molecular markers (anti-TGF 2, SAB4502956) and NF-kB (anti-NF-kB, SAB4501992) using specific antibodies against them were analyzed. All antibodies used were rabbit polyclonal antibodies obtained from Sigma Aldrich and were used at a concentration of 1/1000. All experiments were carried out sixfold.

polymorphonuclear cells = assay: Marker expression (immunohistochemistry) in polymorphonuclear blood cells with SP alone or with NK1 antagonists; format: cell-based, human; conditions: SP 1 μM; 48 h
Excerpt: as §1, §2

[1] = tested on: fibroblasts (PHF) co-cultured with tumor cells of human gastric adenocarcinoma (23132/87); assay: Marker expression (IHC) in PHF co-cultured with 23132/87 tumor cells; format: cell-based; conditions: co-culture with 23132/87; SP 1 μM; 48 h;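 also: cultures grown in fresh plasma from a healthy human donor, values give the percentage of PHF fibroblasts positive for the marker, each experiment run in six replicates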
Description: (§3) All cultures were maintained 48 hours, following which the same cells were included in paraffin blocks for subsequent analysis of the expression of different markers by immunohistochemistry (see Example 1). The primary antibodies used to perform immunohistochemical assays and their concentration are detailed in Example 2. All experiments were carried out sixfold. Analyzed markers in fibroblast cells (stromal cells) were: TGF-α, TGF-β1, TGF-β2, TGF-β3, SPARC, MMP-3, MMP-7, MMP-9, MMP-11, MMP-13 and MMP-14.

[2] = tested on: fibroblasts (PHF) co-cultured with tumor cells of human endometrial carcinoma (AN3-CA); assay: Marker expression (IHC) in PHF co-cultured with AN3-CA tumor cells; format: cell-based; conditions: co-culture with AN3-CA; SP 1 μM; 48 h;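 also: cultured in fresh healthy-donor blood plasma with added antibiotic-antimycotic, run in six replicates, values give percent of fibroblasts positive for each marker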
Description: (§4) All cultures were maintained 48 hours, following which the same cells were included in paraffin blocks for subsequent analysis of the expression of different markers by immunohistochemistry (see Example 1). […] All experiments were carried out sixfold. Analyzed markers in fibroblast cells (stromal cells) were: TGF-α, TGF-β1, TGF-β2, TGF-β3, SPARC, MMP-3, MMP-7, MMP-9, MMP-11, MMP-13 and MMP-14.

[3] = tested on: fibroblasts (PHF) co-cultured with human fibrosarcoma tumor cells (HT-1080); assay: Marker expression (IHC) in PHF co-cultured with HT-1080 tumor cells; format: cell-based; conditions: co-culture with HT-1080; SP 1 μM; 48 h;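 also: cultures grown in fresh human plasma from a healthy donor, six replicates, value is percent of fibroblasts positive for the marker, compared with fibroblasts cultured without tumor cells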
Description: as §4

[4] = tested on: fibroblasts (PHF) co-cultured with tumor cells of human Burkitt lymphoma (CA-46); assay: Marker expression (IHC) in PHF co-cultured with CA-46 tumor cells; format: cell-based; conditions: PHF co-cultured with CA-46 + SP;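 also: percentage of PHF fibroblasts positive for each marker, cultures grown in fresh human plasma from a healthy donor, six replicates, compared with fibroblasts cultured alone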
Description: as §3

[5] = tested on: co-cultures of tumor cells-endothelial cells (C-12210); assay: Inhibition/survival in co-cultures of primary human tumor cells and endothelial cells; format: cell-based; conditions: survival in reference to control, SP 1 μM
Description: To check that the interaction of primary tumor cells extracted directly from human with human vascular endothelial cells, promotes the survival of both cell types, co-cultures were performed microvascular endothelial cells from juvenile foreskins (PromoCell GmbH, Sickingenstraβe 63/65, D-69126 Heidelberg, Germany; reference C-12210) with tumor cells obtained directly from primary human tumors.
A total of 6 wells containing tumor cells were used as control for survival. Another 6 wells containing tumor cells were cultured with addition of endothelial cells.
Subsequently, cells were embedded in paraffin for analysis by immunohistochemistry. In order to identify the different cell types and quantity of them [They were labelled with primary antibodies specific for human endothelial cells (anti-CD31), carcinoma cells (Anti-Cytokeratins Spread Spectrum), glioma (Anti-glial fibrillary acidic protein), fibrosarcoma and malignant fibrous histiocytoma (Anti-Smooth Muscle Actin), Ewing sarcoma (Anti-CD99), Melanoma (Anti-HMB45), leukemias and lymphomas (Anti-Common Antigen Leucitario) and myeloma (anti CD 138). All antibodies are distributed by Dako and were used at the same concentration which is supplied (supplied pre-diluted—“ready to use”).

[6] = Carcinoma of lung, (Small cell carcinoma in Table 36)
[7] = Carcinoma of lung, Non Small Cell Carcinoma in Table 36
[8] = Carcinoma of thyroid, (Follicular Carcinoma in Table 36)
[9] = Carcinoma of thyroid, (Papillary Carcinoma in Table 36)

Question: Which “mononuclear cells expressing NF-kB” value (mononuclear cells) does the source give for `CSCC[C@H](NC(=O)[C@H](CC(C)C)NC(=O)CNC(=O)[C@H](Cc1ccccc1)NC(=O)[C@H](Cc1ccccc1)NC(=O)[C@H](CCC(N)=O)NC(=O)[C@H](CCC(N)=O)NC(=O)[C@@H]1CCCN1C(=O)[C@H](CCCCN)NC(=O)[C@@H]1CCCN1C(=O)[C@@H](N)CCCNC(=N)N)C(N)=O` [SP] here?
Answer: Its value is 25.7 ± 1.4%.

Question: And the “mononuclear cells expressing TGF-β” value (mononuclear cells)?
Answer: Its value is 16.4 ± 1.2%.

Question: What about the “polymorphonuclear cells expressing NF-kB” value (polymorphonuclear cells) of the same compound?
Answer: Its value is 17.5 ± 1.6%.

Question: And the “polymorphonuclear cells expressing TGF-β” value (polymorphonuclear cells)?
Answer: Its value is 36.8 ± 2.1%.

Question: And the “PHF cells expressing MMP-3” value [1]?
Answer: The value was 43.4 ± 1.7%.

Question: And the “PHF cells expressing MMP-7” value [1]?
Answer: The value was 56.1 ± 2.8%.

Question: What about the “PHF cells expressing MMP-9” value [1] of the same compound?
Answer: The value was 52.3 ± 1.4%.

Question: What about the “PHF cells expressing MMP-11” value [1] of the same compound?
Answer: The value was 27.4 ± 2.8%.

Question: What about the “PHF cells expressing MMP-13” value [1] of the same compound?
Answer: Its value is 45 ± 3.5%.

Question: And the “PHF cells expressing MMP-14” value [1]?
Answer: Its value is 49.2 ± 4.5%.

Question: And the “PHF cells expressing SPARC” value [1]?
Answer: Its value is 47 ± 1.2%.

Question: And the “PHF cells expressing TGF-α” value [1]?
Answer: The value was 32.4 ± 1.1%.

Question: And the “PHF cells expressing TGF-β1” value [1]?
Answer: The value was 33.5 ± 1.1%.

Question: And the “PHF cells expressing TGF-β2” value [1]?
Answer: Its value is 40.5 ± 1.1%.

Question: And the “PHF cells expressing TGF-β3” value [1]?
Answer: The value was 41 ± 1.56%.

Question: And the “PHF cells expressing MMP-3” value [2]?
Answer: Its value is 44.2 ± 2.7%.

Question: And the “PHF cells expressing MMP-7” value [2]?
Answer: The value was 54.4 ± 2.1%.

Question: What about the “PHF cells expressing MMP-9” value [2] of the same compound?
Answer: The value was 54.3 ± 1.6%.

Question: And the “PHF cells expressing MMP-11” value [2]?
Answer: The value was 29.4 ± 1.8%.

Question: And the “PHF cells expressing MMP-13” value [2]?
Answer: Its value is 49 ± 3.4%.

Question: What about the “PHF cells expressing MMP-14” value [2] of the same compound?
Answer: Its value is 45.2 ± 3.5%.

Question: What about the “PHF cells expressing SPARC” value [2] of the same compound?
Answer: The value was 49 ± 1.5%.

Question: What about the “PHF cells expressing TGF-α” value [2] of the same compound?
Answer: Its value is 42.4 ± 2%.

Question: What about the “PHF cells expressing TGF-β1” value [2] of the same compound?
Answer: Its value is 33.3 ± 3.1%.

Question: And the “PHF cells expressing TGF-β2” value [2]?
Answer: The value was 43.5 ± 1.1%.

Question: What about the “PHF cells expressing TGF-β3” value [2] of the same compound?
Answer: Its value is 44 ± 1.56%.

Question: And the “PHF cells expressing MMP-3” value [3]?
Answer: The value was 43.4 ± 2.8%.

Question: What about the “PHF cells expressing MMP-7” value [3] of the same compound?
Answer: The value was 57.1 ± 3.8%.

Question: And the “PHF cells expressing MMP-9” value [3]?
Answer: Its value is 52.3 ± 2.4%.

Question: And the “PHF cells expressing MMP-11” value [3]?
Answer: The value was 27.5 ± 3.8%.

Question: What about the “PHF cells expressing MMP-13” value [3] of the same compound?
Answer: Its value is 45.4 ± 3.6%.

Question: What about the “PHF cells expressing MMP-14” value [3] of the same compound?
Answer: Its value is 49.3 ± 3.5%.

Question: And the “PHF cells expressing SPARC” value [3]?
Answer: The value was 51.2 ± 3.3%.

Question: And the “PHF cells expressing TGF-α” value [3]?
Answer: Its value is 42.5 ± 3.1%.

Question: What about the “PHF cells expressing TGF-β1” value [3] of the same compound?
Answer: Its value is 33.6 ± 3.1%.

Question: And the “PHF cells expressing TGF-β2” value [3]?
Answer: Its value is 40.7 ± 2.1%.

Question: And the “PHF cells expressing TGF-β3” value [3]?
Answer: Its value is 51 ± 1.6%.

Question: And the “cells expressing MMP-3” value [4]?
Answer: Its value is 63.4 ± 4.3%.

Question: What about the “cells expressing MMP-7” value [4] of the same compound?
Answer: The value was 66.1 ± 3.8%.

Question: And the “cells expressing MMP-9” value [4]?
Answer: Its value is 72.3 ± 4.4%.

Question: What about the “cells expressing MMP-11” value [4] of the same compound?
Answer: Its value is 67.4 ± 5.8%.

Question: And the “cells expressing MMP-13” value [4]?
Answer: The value was 55 ± 6.4%.

Question: And the “cells expressing MMP-14” value [4]?
Answer: Its value is 59.1 ± 6.3%.

Question: What about the “cells expressing SPARC” value [4] of the same compound?
Answer: Its value is 77 ± 4.2%.

Question: And the “cells expressing TGF-α” value [4]?
Answer: The value was 61.4 ± 5.1%.

Question: What about the “cells expressing TGF-β1” value [4] of the same compound?
Answer: The value was 63.4 ± 4.1%.

Question: What about the “cells expressing TGF-β2” value [4] of the same compound?
Answer: The value was 60.5 ± 5.1%.

Question: What about the “cells expressing TGF-β3” value [4] of the same compound?
Answer: The value was 71 ± 4.56%.

Question: What about the “Endothelial cells co-cultured with tumor cells + SP” value (shortened to “Endothelial cells co-cultured”) ([5]; Carcinoma of Colon) of the same compound?
Answer: Its value is 243 ± 4%.

Question: What about the “Tumor cells co-cultured with endothelial cells + SP” value (“Tumor cells co-cultured” for short) ([5]; Carcinoma of Colon) of the same compound?
Answer: The value was 253 ± 4%.

Question: And the “Endothelial cells co-cultured” value ([5]; Carcinoma of Pancreas)?
Answer: Its value is 287 ± 3%.

Question: What about the “Tumor cells co-cultured” value ([5]; Carcinoma of Pancreas) of the same compound?
Answer: The value was 252 ± 4%.

Question: And the “Endothelial cells co-cultured” value ([5]; Carcinoma of breast)?
Answer: Its value is 281 ± 4%.

Question: What about the “Tumor cells co-cultured” value ([5]; Carcinoma of breast) of the same compound?
Answer: Its value is 253 ± 5%.

Question: What about the “Endothelial cells co-cultured” value ([5]; Carcinoma of cervix) of the same compound?
Answer: Its value is 292 ± 4%.

Question: What about the “Tumor cells co-cultured” value ([5]; Carcinoma of cervix) of the same compound?
Answer: Its value is 260 ± 4%.

Question: And the “Endothelial cells co-cultured” value ([5]; Carcinoma of endometrial)?
Answer: The value was 283 ± 5%.

Question: What about the “Tumor cells co-cultured” value ([5]; Carcinoma of endometrial) of the same compound?
Answer: Its value is 252 ± 3%.

Question: And the “Endothelial cells co-cultured” value [5, 6]?
Answer: Its value is 294 ± 2%.

Question: And the “Tumor cells co-cultured” value [5, 6]?
Answer: Its value is 264 ± 3%.

Question: What about the “Endothelial cells co-cultured” value [5, 7] of the same compound?
Answer: The value was 274 ± 5%.

Question: And the “Tumor cells co-cultured” value [5, 7]?
Answer: The value was 245 ± 6%.

Question: What about the “Endothelial cells co-cultured” value ([5]; Carcinoma of ovarian) of the same compound?
Answer: The value was 282 ± 4%.

Question: And the “Tumor cells co-cultured” value ([5]; Carcinoma of ovarian)?
Answer: Its value is 254 ± 4%.

Question: And the “Endothelial cells co-cultured” value ([5]; Carcinoma of prostate)?
Answer: The value was 270 ± 4%.

Question: And the “Tumor cells co-cultured” value ([5]; Carcinoma of prostate)?
Answer: The value was 269 ± 1%.

Question: What about the “Endothelial cells co-cultured” value ([5]; Carcinoma of stomach) of the same compound?
Answer: The value was 251 ± 3%.

Question: What about the “Tumor cells co-cultured” value ([5]; Carcinoma of stomach) of the same compound?
Answer: The value was 260 ± 4%.

Question: And the “Endothelial cells co-cultured” value [5, 8]?
Answer: Its value is 260 ± 5%.

Question: And the “Tumor cells co-cultured” value [5, 8]?
Answer: The value was 240 ± 6%.

Question: And the “Endothelial cells co-cultured” value [5, 9]?
Answer: The value was 265 ± 2%.

Question: And the “Tumor cells co-cultured” value [5, 9]?
Answer: The value was 230 ± 4%.

Question: What about the “Endothelial cells co-cultured” value ([5]; Fibrosarcoma) of the same compound?
Answer: Its value is 249 ± 5%.

Question: What about the “Tumor cells co-cultured” value ([5]; Fibrosarcoma) of the same compound?
Answer: The value was 257 ± 3%.

Question: What about the “Endothelial cells co-cultured” value ([5]; Glioma) of the same compound?
Answer: The value was 238 ± 6%.

Question: What about the “Tumor cells co-cultured” value ([5]; Glioma) of the same compound?
Answer: Its value is 247 ± 5%.

Question: What about the “Endothelial cells co-cultured” value ([5]; Hodgkin's Lymphoma) of the same compound?
Answer: Its value is 248 ± 5%.

Question: What about the “Tumor cells co-cultured” value ([5]; Hodgkin's Lymphoma) of the same compound?
Answer: Its value is 265 ± 4%.

Question: What about the “Endothelial cells co-cultured” value ([5]; Leukemia B) of the same compound?
Answer: The value was 278 ± 4%.

Question: What about the “Tumor cells co-cultured” value ([5]; Leukemia B) of the same compound?
Answer: Its value is 265 ± 6%.

Question: What about the “Endothelial cells co-cultured” value ([5]; Leukemia T) of the same compound?
Answer: The value was 276 ± 4%.

Question: What about the “Tumor cells co-cultured” value ([5]; Leukemia T) of the same compound?
Answer: The value was 256 ± 6%.

Question: And the “Endothelial cells co-cultured” value ([5]; Malignant fibrous histiocytoma)?
Answer: The value was 246 ± 4%.

Question: And the “Tumor cells co-cultured” value ([5]; Malignant fibrous histiocytoma)?
Answer: Its value is 245 ± 3%.

Question: And the “Endothelial cells co-cultured” value ([5]; Melanoma)?
Answer: The value was 267 ± 4%.

Question: And the “Tumor cells co-cultured” value ([5]; Melanoma)?
Answer: The value was 245 ± 2%.

Question: And the “Endothelial cells co-cultured” value ([5]; Myeloma)?
Answer: The value was 267 ± 2%.

Question: What about the “Tumor cells co-cultured” value ([5]; Myeloma) of the same compound?
Answer: Its value is 232 ± 3%.

Question: What about the “Endothelial cells co-cultured” value ([5]; Neuroblastoma) of the same compound?
Answer: Its value is 258 ± 3%.

Question: And the “Tumor cells co-cultured” value ([5]; Neuroblastoma)?
Answer: Its value is 256 ± 5%.

Question: And the “Endothelial cells co-cultured” value ([5]; Non-Hodgkin's Lymphoma B)?
Answer: The value was 254 ± 7%.

Question: And the “Tumor cells co-cultured” value ([5]; Non-Hodgkin's Lymphoma B)?
Answer: The value was 267 ± 5%.

Question: What about the “Endothelial cells co-cultured” value ([5]; Non-Hodgkin's Lymphoma T) of the same compound?
Answer: The value was 256 ± 4%.

Question: What about the “Tumor cells co-cultured” value ([5]; Non-Hodgkin's Lymphoma T) of the same compound?
Answer: Its value is 276 ± 4%.

Question: And the “Endothelial cells co-cultured” value ([5]; Renal carcinoma)?
Answer: The value was 282 ± 4%.

Question: What about the “Tumor cells co-cultured” value ([5]; Renal carcinoma) of the same compound?
Answer: The value was 260 ± 4%.

Question: And the “Endothelial cells co-cultured” value ([5]; Sarcoma of Ewing)?
Answer: The value was 234 ± 5%.

Question: And the “Tumor cells co-cultured” value ([5]; Sarcoma of Ewing)?
Answer: Its value is 236 ± 4%.
